Measured values taken from patent US20050143391A1, “Heterocyclic amides with alpha-4 integrin antagonist activity” (J. Uriach Y Compañia S.A., priority 2002, published 2005).

Each compound was assayed against T1, integrin α4β1 (Homo sapiens, UniProt P05556+P13612) (assay: Inhibition of α4β1-dependent cell adhesion (Jurkat cells to peptide CS-1)). Settings: adhesion of Jurkat cells to CS-1-coated plates; products preincubated with cells at 37° C. for 30 minutes; at least 6 product concentrations.
T1 construct: endogenous in cells; host or cells: Jurkat cells
Format: cell-based
Protocol: Inhibition of α4β1-Dependent Cell Adhesion
Inhibition of α4β1-dependent cell adhesion was assayed by evaluating the interaction between the peptide CS-1 (H-CLHGPEILDVPST-CONH2) and Jurkat cells (T lymphocyte cell line expressing activated integrin α4β1 but not integrin α4β7) after preincubation of said cells with the compounds of formula I to be tested. The peptide CS-1 was synthesized by conventional solid phase chemistry and purified by HPLC. Its identity was determined by elemental analysis and mass spectroscopy.
1.—Preparation of CS-1-Coated Plates
96-black well plates (Costar 3925) were used. 200 μL of 2% bovine serum albumin solution (BSA, Sigma α4503) was added per well and the plate was incubated for 2 hours at 37° C. The solution was discarded and the plate was washed twice with 200 μL of phosphate buffered saline solution (PBS, Gibco 14190-094) per well. Then, 200 μL of 10 μg/mL N-succinimidyl 3-(2-pyridyldithio)propionate solution (SPDP, Sigma P-3415) was added per well, and the plate was incubated at 37° C. for 30 minutes. The remaining solution was discarded and the plate was twice washed with 200 μL per well of PBS. Next, 200 μL of 25 μg/mL CS-1 peptide solution (equivalent to 5 μg/well) was added per well and the plate was incubated at 37° C. for 2 hours and then overnight at 4° C.
2.—Jurkat Cell Line: Culture and Fluorescent Labelling
Jurkat cells were kept in culture at a density comprised between 2×10^5 and 1.5×10^6 cells/mL in 1640 RPMI medium (Gibco 21875-034) enriched with 10% fetal calf serum (FCS, Gibco 10270-106).
50×10^6 cells were extracted, centrifuged (1200 rpm, 10 min, room temperature) and the medium was discarded. Cells were resuspended in 5 mL of RPMI, and 10 μL of a 1 mM solution of the fluorophore calceine.AM (Molecular Probes, C-3100) was added. The suspension was incubated for 30 min at 37° C. in the darkness, with occasional shaking. 40 mL of RPMI was added to stop the labelling and the suspension was centrifuged (1200 rpm, 10 min, room temperature). The medium was discarded, and the labelled cells were washed with 40 mL of RPMI in order to remove the unincorporated fluorescent probe. Finally, cells were resuspended in RPMI enriched with 10% FCS to obtain a 8×10^6 cells/mL suspension.
The plate previously prepared was twice washed with 200 μL per well of PBS and blocked with 200 μL of 1% BSA for at least 1 hour at room temperature.
The products to be tested were dissolved in dimethylsulfoxide at a concentration of 10 mM and dilutions thereof were prepared in RPMI medium enriched with 10% FCS. The products were preincubated with the Jurkat cells at 37° C. for 30 minutes, at a product concentration comprised between 1 nM and 10 μM, at a cell density of 4×10^6 cells/mL and at a maximal dimethylsulfoxide concentration of 0.1%.
100 μL of the resulting cell-product supsension was added per well (cellular density 4×10^5 cells/well). The product was omitted in the control wells and cells or CS-1 were omitted in the blanks. The plate was incubated for 60 min at room temperature in the-darkness, was twice washed with 200 μL per well of RPMI and then 100 μL of PBS was added. The plate was read with a fluorescence reader at an excitation wavelength of 485 nm and at an emission wavelength of 530 nm.
Maximal adhesion (100%) was determined as the average of the fluorescence intensities (FI) of the control wells, and the minimal adhesion as the average FI of the blanks. The adhesion inhibition percentage was determined using the following formula: [formula]
The results are expressed as the IC50 values (concentration producing 50% inhibition). IC50 values were calculated by testing at least 6 product concentrations and by adjusting the inhibition percentages to a dose-response curve of variable slope.

T1 sequence (P13612 34-1032): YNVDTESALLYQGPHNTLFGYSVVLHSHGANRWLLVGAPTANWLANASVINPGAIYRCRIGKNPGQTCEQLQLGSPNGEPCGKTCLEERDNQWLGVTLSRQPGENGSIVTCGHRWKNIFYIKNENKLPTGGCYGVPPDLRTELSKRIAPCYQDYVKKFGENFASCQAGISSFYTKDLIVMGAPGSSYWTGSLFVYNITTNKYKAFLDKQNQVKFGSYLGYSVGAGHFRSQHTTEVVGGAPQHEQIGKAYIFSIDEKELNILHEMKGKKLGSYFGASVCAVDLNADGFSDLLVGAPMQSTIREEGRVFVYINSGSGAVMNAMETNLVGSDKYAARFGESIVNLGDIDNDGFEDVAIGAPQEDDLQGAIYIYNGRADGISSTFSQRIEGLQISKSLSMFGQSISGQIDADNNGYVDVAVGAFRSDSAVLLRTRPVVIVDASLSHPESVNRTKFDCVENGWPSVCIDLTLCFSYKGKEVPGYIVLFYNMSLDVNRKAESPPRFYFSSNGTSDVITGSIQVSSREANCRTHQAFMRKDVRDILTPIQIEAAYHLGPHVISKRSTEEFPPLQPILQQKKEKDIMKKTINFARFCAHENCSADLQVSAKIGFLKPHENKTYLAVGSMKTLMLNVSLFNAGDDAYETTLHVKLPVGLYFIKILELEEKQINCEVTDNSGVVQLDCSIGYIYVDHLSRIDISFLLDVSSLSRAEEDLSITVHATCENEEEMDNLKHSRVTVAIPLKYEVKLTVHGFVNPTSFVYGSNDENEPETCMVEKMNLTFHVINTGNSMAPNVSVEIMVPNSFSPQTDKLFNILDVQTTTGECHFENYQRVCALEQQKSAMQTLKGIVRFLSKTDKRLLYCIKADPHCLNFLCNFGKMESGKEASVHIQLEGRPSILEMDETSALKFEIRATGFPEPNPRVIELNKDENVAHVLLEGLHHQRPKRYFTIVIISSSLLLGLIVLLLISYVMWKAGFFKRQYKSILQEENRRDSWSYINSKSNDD
T1 sequence (P05556 21-798): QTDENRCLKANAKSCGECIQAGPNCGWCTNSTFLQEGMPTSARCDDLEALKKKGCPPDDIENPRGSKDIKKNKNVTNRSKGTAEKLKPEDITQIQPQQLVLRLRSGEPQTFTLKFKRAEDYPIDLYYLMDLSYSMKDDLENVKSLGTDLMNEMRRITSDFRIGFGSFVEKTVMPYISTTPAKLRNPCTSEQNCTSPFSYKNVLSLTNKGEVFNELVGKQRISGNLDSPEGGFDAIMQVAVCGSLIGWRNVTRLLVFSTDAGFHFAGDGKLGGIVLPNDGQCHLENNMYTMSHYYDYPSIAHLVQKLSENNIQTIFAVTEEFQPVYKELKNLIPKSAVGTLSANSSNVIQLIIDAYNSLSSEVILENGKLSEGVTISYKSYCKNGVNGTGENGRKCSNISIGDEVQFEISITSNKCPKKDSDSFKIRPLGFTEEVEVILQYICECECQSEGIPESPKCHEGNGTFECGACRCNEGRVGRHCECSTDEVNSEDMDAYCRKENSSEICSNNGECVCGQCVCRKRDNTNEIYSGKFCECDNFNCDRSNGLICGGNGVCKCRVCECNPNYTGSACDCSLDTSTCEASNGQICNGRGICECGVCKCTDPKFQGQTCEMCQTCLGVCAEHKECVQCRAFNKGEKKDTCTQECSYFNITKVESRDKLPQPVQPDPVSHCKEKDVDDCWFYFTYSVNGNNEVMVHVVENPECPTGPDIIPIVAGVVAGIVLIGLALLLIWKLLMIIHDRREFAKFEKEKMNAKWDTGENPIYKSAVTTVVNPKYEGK

Q: How did the IC50 turn out when `O=C(O)[C@H](CCC(=O)N1CCC(CCN2CCOCC2)CC1)NC(=O)[C@@H]1CCCN1S(=O)(=O)c1cc(Cl)cc(Cl)c1` [Example 80, (2S)-2-[1-(3,5-Dichlorophenylsulfonyl)-L-prolylamino]-5-[4-[2-(4-morpholinyl)ethyl]piperidin-1-yl]-5-oxopentanoic Acid] was run?
A: 0.5 nM

Q: With `Cc1ccc(C)n1CC1CCN(C(=O)CC[C@H](NC(=O)[C@@H]2CCCN2S(=O)(=O)c2cc(Cl)cc(Cl)c2)C(=O)O)CC1` [Example 82, (2S)-2-[1-(3,5-Dichlorophenylsulfonyl)-L-prolylamino]-5-[4-(2,5-dimethylpyrrol-1-ylmethyl)piperidin-1-yl]-5-oxopentanoic Acid] as the compound, how does the IC50 read?
A: 89 nM

Q: With `CN(C)CC1CCN(C(=O)CC[C@H](NC(=O)[C@@H]2CCCN2S(=O)(=O)c2cc(Cl)cc(Cl)c2)C(=O)O)CC1` [Example 83, (2S)-2-[1-(3,5-Dichlorophenylsulfonyl)-L-prolylamino]-5-[4-(dimethylaminomethyl)piperidin-1-yl]-5-oxopentanoic Acid] as the compound, how does the IC50 read?
A: 65 nM

Q: `CN(C)CCN1CCN(C(=O)CC[C@H](NC(=O)[C@@H]2CCCN2S(=O)(=O)c2cc(Cl)cc(Cl)c2)C(=O)O)CC1` [Example 84, (2S)-2-[1-(3,5-Dichlorophenylsulfonyl)-L-prolylamino]-5-[4-[2-(dimethylamino)ethyl]piperazin-1-yl]-5-oxopentanoic Acid] was tested. Which IC50 did it give?
A: 6 nM

Q: How did the IC50 turn out when `CCc1nc2cnccc2n1CC1CCN(C(=O)CC[C@H](NC(=O)[C@@H]2CCCN2S(=O)(=O)c2cc(Cl)cc(Cl)c2)C(=O)O)CC1` [Example 85, (2S)-2-[1-(3,5-Dichlorophenylsulfonyl)-L-prolylamino]-5-[4-(2-ethylimidazo[4,5-c]pyridin-1-ylmethyl)piperidin-1-yl]-5-oxopentanoic Acid] was run?
A: 12 nM

Q: `O=C(O)[C@H](CCC(=O)N1CCC(Cn2c(=O)[nH]c3cnccc32)CC1)NC(=O)[C@@H]1CCCN1S(=O)(=O)c1cc(Cl)cc(Cl)c1` [Example 86, (2S)-2-[1-(3,5-Dichlorophenylsulfonyl)-L-prolylamino]-5-oxo-5-[4-(2-oxo-2,3-dihydroimidazo[4,5-c]pyridin-1-ylmethyl)piperidin-1-yl]pentanoic Acid] was tested. Which IC50 did it give?
A: 18 nM

Q: For `CC(C)Nc1nc2cnccc2n1CC1CCN(C(=O)CC[C@H](NC(=O)[C@@H]2CCCN2S(=O)(=O)c2cc(Cl)cc(Cl)c2)C(=O)O)CC1` [Example 87, (2S)-2-[1-(3,5-Dichlorophenylsulfonyl)-L-prolylamino]-5-[(2-isopropylaminoimidazo[4,5-c]pyridin-1-ylmethyl)piperidin-1-yl]-5-oxopentanoic Acid], which IC50 is on record?
A: 14.1 nM

Q: With `CCN(CC)CC1CCN(C(=O)CC[C@H](NC(=O)[C@@H]2CCCN2S(=O)(=O)c2cc(Cl)cc(Cl)c2)C(=O)O)CC1` [Example 88, (2S)-2-[1-(3,5-Dichlorophenylsulfonyl)-L-prolylamino]-5-[4-(diethylaminomethyl)piperidin-1-yl]-5-oxopentanoic Acid] as the compound, how does the IC50 read?
A: 83.9 nM

Q: `Cc1nc2cnccc2n1CC1CCN(C(=O)NC[C@H](NC(=O)[C@@H]2CCCN2S(=O)(=O)c2cc(Cl)cc(Cl)c2)C(=O)O)CC1` [Example 89, (2S)-2-[1-(3,5-Dichlorophenylsulfonyl)-L-prolyl]amino-3-[[4-(2-methylimidazo[4,5-c]pyridin-1-ylmethyl)piperidin-1-ylcarbonyl]amino]propionic Acid] was tested. Which IC50 did it give?
A: 7.7 nM

Q: `CCN(CC)CCC1CCN(C(=O)CC[C@H](NC(=O)[C@@H]2CCCN2S(=O)(=O)c2cc(Cl)cc(Cl)c2)C(=O)O)CC1` [Example 91, (2S)-2-[1-(3,5-Dichlorophenylsulfonyl)-L-prolylamino]-5-[4-[2-(diethylamino)ethyl]piperidin-1-yl]-5-oxopentanoic Acid] was tested. Which IC50 did it give?
A: 64.6 nM

Q: For `CN1CCN(C(=O)OCCC2CCN(C(=O)CC[C@H](NC(=O)[C@@H]3CCCN3S(=O)(=O)c3cc(Cl)cc(Cl)c3)C(=O)O)CC2)CC1` [Example 93, (2S)-2-[1-(3,5-Dichlorophenylsulfonyl)-L-prolylamino]-5-[4-[2-[(4-methylpiperazin-1-yl)carbonyloxy]ethyl]piperidin-1-yl]5-oxopentanoic Acid], which IC50 is on record?
A: 26.7 nM

Q: `O=C(O)[C@H](CCC(=O)N1CCC(CN2CCCCC2)CC1)NC(=O)[C@@H]1CCCN1S(=O)(=O)c1cc(Cl)cc(Cl)c1` [Example 94, (2S)-2-[1-(3,5-Dichlorophenylsulfonyl)-L-prolylamino]-5-oxo-5-[4-(1-piperidylmethyl)piperidin-1-yl]pentanoic Acid] was tested. Which IC50 did it give?
A: 14.1 nM

Q: With `CN(C)CC1CCN(C(=O)NC[C@H](NC(=O)[C@@H]2CCCN2S(=O)(=O)c2cc(Cl)cc(Cl)c2)C(=O)O)CC1` [Example 95, (2S)-2-[1-(3,5-Dichlorophenylsulfonyl)-L-prolyl]amino-3-[[4 (dimethylaminomethyl)piperidin-1-ylcarbonyl]amino]propionic Acid] as the compound, how does the IC50 read?
A: 4.9 nM

Q: How did the IC50 turn out when `CCNCC1CCN(C(=O)CC[C@H](NC(=O)[C@@H]2CCCN2S(=O)(=O)c2cc(Cl)cc(Cl)c2)C(=O)O)CC1` [Example 96, (2S)-2-[1-(3,5-Dichlorophenylsulfonyl)-L-prolylamino]-5-[4-[(ethylamino)methyl]piperidin-1-yl]-5-oxopentanoic Acid] was run?
A: 74.8 nM

Q: `CN1CCN(C(=O)NCC2CCN(C(=O)CC[C@H](NC(=O)[C@@H]3CCCN3S(=O)(=O)c3cc(Cl)cc(Cl)c3)C(=O)O)CC2)CC1` [Example 97, (2S)-2-[1-(3,5-Dichlorophenylsulfonyl)-L-prolylamino]-5-[4-[[(4-methylpiperazin-1-yl)carbonylamino]methyl]piperidin-1-yl]-5-oxopentanoic Acid] was tested. Which IC50 did it give?
A: 122 nM

Q: `CN(C)CC1CCN(C(=O)OC[C@H](NC(=O)[C@@H]2CCCN2S(=O)(=O)c2cc(Cl)cc(Cl)c2)C(=O)O)CC1` [Example 98, (2S)-2-[1-(3,5-Dichlorophenylsulfonyl)-L-prolyl]amino-3-[4-(dimethylaminomethyl)piperidin-1-ylcarbonyloxy]propionic Acid] was tested. Which IC50 did it give?
A: 17.7 nM

Q: Which IC50 does the source give for `O=C(O)[C@H](CCC(=O)N1CCC(CNc2ccncc2)CC1)NC(=O)[C@@H]1CCCN1S(=O)(=O)c1cc(Cl)cc(Cl)c1` [Example 99, (2S)-2-[1-(3,5-Dichlorophenylsulfonyl)-L-prolylamino]-5-oxo-5-[4-(4-pyridylaminomethyl)piperidin-1-yl]pentanoic Acid] here?
A: 13.1 nM

Q: Which IC50 does the source give for `O=C(O)[C@H](CCC(=O)N1CCC(COc2ccncc2)CC1)NC(=O)[C@@H]1CCCN1S(=O)(=O)c1cc(Cl)cc(Cl)c1` [Example 102, (2S)-2-[1-(3,5-Dichlorophenylsulfonyl)-L-prolylamino]-5-oxo-5-[4-(4-pyridyloxymethyl)piperidin-1-yl]pentanoic Acid] here?
A: 305 nM

Q: For `Cc1ccc(S(=O)(=O)N2CCC[C@H]2C(=O)N[C@@H](CNC(=O)N2CCC(CN3CCCCC3)CC2)C(=O)O)cc1` [Example 105, (2S)-3-[[4-(1-Piperidylmethyl)piperidin-1-ylcarbonyl]amino]-2-[N-tosyl-L-prolyl]aminopropionic Acid], which IC50 is on record?
A: 120 nM

Q: Which IC50 does the source give for `CN1CCN(C(=O)OCCC2CCN(C(=O)NC[C@H](NC(=O)[C@@H]3CCCN3S(=O)(=O)c3cc(Cl)cc(Cl)c3)C(=O)O)CC2)CC1` [Example 116, (2S)-2-[1-(3,5-Dichlorophenylsulfonyl)-L-prolyl]amino-3-[[4-[2-[(4-methylpiperazin-1-yl)carbonyloxy]ethyl]piperidin-1-ylcarbonyl]amino]propionic Acid] here?
A: 9.8 nM

Q: With `O=C(O)[C@H](CCC(=O)N1CCC(CCOC(=O)N2CCN(c3ccccc3)CC2)CC1)NC(=O)[C@@H]1CCCN1S(=O)(=O)c1cc(Cl)cc(Cl)c1` [Example 117, (2S)-2-[1-(3,5-Dichlorophenylsulfonyl)-L-prolylamino]-5-oxo-5-[4-[2-(4-phenylpiperazin-1-ylcarbonyloxy)ethyl]piperidin-1-yl]pentanoic Acid] as the compound, how does the IC50 read?
A: 135 nM
